# Like-named read-outs stand apart in the source and are kept apart here.
# How the values were obtained:
# [1] = system: stable HCV 1a RLuc replicon cells (genotype 1a H77 replicon); test: microbe, parasite or virus in culture; type: cell-based; conditions: Hepatitis C virus
# [2] = system: stable HCV 2a JFH-1 Rluc replicon cells (L31 present in NS5A); test: microbe, parasite or virus in culture; type: cell-based
# [3] = system: NS5A chimeric genotype 1b Con1 replicon with genotype 3a S52 strain NS5A gene; test: microbe, parasite or virus in culture; type: cell-based, HCV
# Procedure, shortened: (§1)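 Con1 1b replicons carrying 3a S52 or 4a ED43 NS5A with Pi-RLuc reporter were transiently transfected into Huh-Lunet cells; 2b MD2b-1 NS5A (M31) in JFH-1 2a backbone with RLuc-Neo, transient or stable.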
# [4] = system: NS5A chimeric genotype 2a JFH-1 replicon with genotype 2a J6 strain NS5A gene (M31 present); test: microbe, parasite or virus in culture; type: cell-based, HCV
# [5] = system: NS5A chimeric genotype 2a JFH-1 replicon with genotype 2b MD2b-1 strain NS5A gene (M31 present); test: microbe, parasite or virus in culture; type: cell-based, HCV
# Procedure, shortened: as §1
# [6] = system: 1a Pi-Rluc replicon with Q30R in genotype 1a NS5A; test: microbe, parasite or virus in culture; type: cell-based, HCV
# Procedure, shortened: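 Renilla luciferase replicon assay: 1a Pi-RLuc replicon carrying NS5A Q30R, transfected transiently into cured-51 (Huh-7-derived) cells.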
# [7] = IV and PO single dose pharmacokinetic studies in SD rats; type: in vivo; conditions: male, Sprague-Dawley, rat, plasma, IV infusion 1 mg/kg vs oral gavage 2 mg/kg, read-out: Rat % F
# Protocol: IV and PO Single Dose Pharmacokinetic Studies in SD Rats: The pharmacokinetics of selected compounds was characterized in male Sprague-Dawley (SD) rats (250-300g). […] The intravenous (IV) dosing vehicle was 5% ethanol, 35% polyethylene glycol 400 (PEG 400) and 60% water pH 2.0. […] Serial blood samples (approximately 0.3 mL each) were collected from jugular vein or other suitable vein at specified time points. […] The blood samples were collected into Vacutainer™ tubes containing EDTA-K3 as the anti-coagulant and were centrifuged at approximately 4° C. to obtain plasma. The plasma samples were stored at −20° C. until analysis by LC/MS/MS. A bioanalytical method utilizing high performance liquid chromatography coupled to tandem mass spectrometry (LC/MS/MS) was developed for analysis of the selected compound in rat plasma. Detection was performed using selected reaction monitoring (SRM); […] Standard curve and quality control samples were prepared in male rat plasma and processed in the same way as the test samples to generate quantitative data. Pharmacokinetic parameters were generated using non-compartmental pharmacokinetic analysis (Phoenix WinNonlin, version 6.3). Values below the lower limit of quantification (LLOQ) were assigned a value of zero if predose and treated as missing thereafter. Area under the curve (AUC) was calculated using the linear trapezoidal rule. The oral bioavailability (% F) was determined by comparison of the area under the curve (AUC) of the compound and/or a metabolite generated in plasma following oral administration to that generated following intravenous administration.
# [8] = system: stable HCV 1b RLuc replicon cells (genotype 1b Con1 replicon); test: microbe, parasite or virus in culture; type: cell-based
# [9] = system: NS5A chimeric genotype 1b Con1 replicon with genotype 4a ED43 strain NS5A gene; test: microbe, parasite or virus in culture; type: cell-based, HCV
# [10] = Hepatitis C virus, read-out: 2a JFH
# [11] = Hepatitis C virus, read-out: 2a JFH (nM)
# [12] = Hepatitis C virus, read-out: 3a
# [13] = Hepatitis C virus, read-out: 3a (nM)
# [14] = Hepatitis C virus, read-out: 2a J6
# [15] = Hepatitis C virus, read-out: 2a Jb (t) (nM)
# [16] = Hepatitis C virus, read-out: 2b
# [17] = Hepatitis C virus, read-out: 2b (s) (nM)
# [18] = Hepatitis C virus, read-out: 2b (t) (nM)
# [19] = Hepatitis C virus, read-out: 1a Q30R
# [20] = Hepatitis C virus, read-out: 1a Q30R (nM)
# [21] = Hepatitis C virus, read-out: 1b (nM)
# [22] = Hepatitis C virus, read-out: 2a J6 (s) (nM)
# [23] = Hepatitis C virus, read-out: 4a
# [24] = Hepatitis C virus, read-out: 4a (s) (nM)
# [25] = Hepatitis C virus, read-out: 4a (t) (nM)
Compound,EC50 ([1]; read-out: 1a) [nM],EC50 ([1]; read-out: 1a (nM)) [nM],"EC50 [2, 10] [nM]","EC50 [2, 11] [nM]","EC50 [3, 12] [nM]","EC50 [3, 13] [nM]","EC50 [4, 14] [nM]","EC50 [4, 15] [nM]","EC50 [5, 16] [nM]","EC50 [5, 17] [nM]","EC50 [5, 18] [nM]","EC50 [6, 19] [nM]","EC50 [6, 20] [nM]","EC50 [8, 21] [nM]","EC50 [4, 22] [nM]","EC50 [9, 23] [nM]","EC50 [9, 24] [nM]","EC50 [9, 25] [nM]",other results
COC(=O)N[C@H](C(=O)N1[C@@H](C)CC[C@H]1c1ncc(-c2ccc3c(c2)COc2cc4c(ccc5nc([C@@H]6C[C@H](C)CN6C(=O)[C@H](NC(=O)OC)c6ccccc6)[nH]c54)cc2-3)[nH]1)C(C)C [Compound 617],< 1,0.009,< 1,0.004,< 1,0.019,< 1,0.032,< 1,0.011,0.013,< 1,0.024,,,,,,bioavailability [7]: 14.4%
"COC[C@H]1C[C@@H](c2nc3ccc4cc5c(cc4c3[nH]2)OCc2cc(-c3cnc([C@@H]4CCCN4C(=O)[C@@H](NC(=O)OC)C(C)C)[nH]3)ccc2-5)N(C(=O)[C@H](NC(=O)OC)c2ccccc2)C1 [Example LR-1, methyl{2-[2-{9-[2-(1-{2-[(methoxycarbonyl)amino]-3-methylbutanoyl}pyrrolidin-2-yl)-1H-imidazol-5-yl]-1,11-dihydroisochromeno[4′,3′:6,7]naphtho[1,2-d]imidazol-2-yl}-4-(methoxymethyl)pyrrolidin-1-yl]-2-oxo-1-phenylethyl}carbamate]",< 1,0.011,< 1,0.005,< 1,0.013,< 1,0.018,< 1,0.024,0.01,< 1,0.015,0.016,0.048,< 1,0.012,0.01,
"COC[C@H]1C[C@@H](c2nc3ccc4cc5c(cc4c3[nH]2)OCc2cc(-c3cnc([C@@H]4CC6C[C@H]6N4C(=O)[C@@H](NC(=O)OC)C(C)C)[nH]3)ccc2-5)N(C(=O)[C@H](NC(=O)OC)c2ccccc2)C1 (stereo partly shown) [Example LT, methyl{2-[2-{9-[2-(2-{2-[(methoxycarbonyl)amino]-3-methylbutanoyl}-2-azabicyclo[3.1.0]hex-3-yl)-1H-imidazol-5-yl]-1,11-dihydroisochromeno[4′,3′:6,7]naphtho[1,2-d]imidazol-2-yl}-4-(methoxymethyl)pyrrolidin-1-yl]-2-oxo-1-phenylethyl}carbamate]",< 1,0.009,< 1,0.004,< 1,0.012,< 1,0.01,< 1,0.039,0.009,< 1,0.01,0.016,0.047,< 1,0.009,0.015,
COC(=O)N[C@H](C(=O)N1CCC[C@H]1c1nc2c(ccc3cc4c(cc32)OCc2cc(-c3cnc([C@@H]5CCCN5C(=O)[C@H](NC(=O)OC)c5ccccc5)[nH]3)ccc2-4)[nH]1)C(C)C [Example MD],< 1,0.035,< 1,0.006,< 1,0.006,< 1,0.073,< 1,0.038,0.016,< 1,0.192,0.033,0.439,< 1,0.035,0.011,
COC(=O)N[C@H](C(=O)N1CCC[C@H]1c1ncc(-c2ccc3c(c2)COc2cc4c(cc2-3)CCc2[nH]c([C@@H]3CCCN3C(=O)[C@@H](NC(=O)OC)C(C)C)nc2-4)[nH]1)C(C)C [Example ME],< 1,0.033,< 1,0.012,< 1,0.015,1 to 4.99,3.43,< 1,0.701,0.198,1 to 44,2.51,0.049,16.1,< 1,0.029,0.016,
"COC(=O)N[C@H](C(=O)N1CCC[C@H]1c1nc2c([nH]1)CCc1cc3c(cc1-2)OCc1cc(-c2cnc([C@@H]4CCCN4C(=O)[C@H](NC(=O)OC)c4ccccc4)[nH]2)ccc1-3)C(C)C [Example MF, methyl[1-(2-{5-[2-(1-{[(methoxycarbonyl)amino]-3-methyl-1-oxobutan-2-yl}pyrrolidin-2-yl)-1,4,5,11-tetrahydroisochromeno[4′,3′:6,7]naphtho[1,2-d]imidazol-9-yl]-1H-imidazol-2-yl}pyrrolidin-1-yl)-phenyl-1-oxoacet-2-yl]carbamate]",< 1,0.059,< 1,0.012,< 1,0.011,< 1,0.476,< 1,0.083,,< 1,0.768,0.058,2.14,< 1,,0.025,
COC(=O)N[C@H](C(=O)N1CCC[C@H]1c1ncc(-c2ccc3c(c2)COc2cc4c(cc2-3)CCc2[nH]c([C@@H]3CCCN3C(=O)[C@H](NC(=O)OC)c3ccccc3)nc2-4)[nH]1)C(C)C [Example MG],< 1,0.054,< 1,0.012,< 1,0.01,< 1,0.337,< 1,0.07,,< 1,0.663,0.055,2.29,< 1,0.08,0.024,
COC[C@H]1C[C@@H](c2ncc(-c3ccc4c(c3)COc3cc5c(ccc6nc([C@@H]7C[C@H]8C[C@H]8N7C(=O)[C@H](NC(=O)OC)c7ccccc7)[nH]c65)cc3-4)[nH]2)N(C(=O)[C@@H](NC(=O)OC)C(C)C)C1 [Example MV],< 1,0.01,< 1,0.004,< 1,0.011,< 1,0.047,< 1,,0.041,< 1,0.012,0.014,0.034,< 1,0.011,,
"dimethyl (2S,2′S)-1,1′-((2S,2′S)-2,2′1-pyrrolidin-2-yl)-5H-naphtho[c,g]chromeno[8,9-d]imidazol-9-yl)-1H-imidazol-2-yl)pyrrolidin-1-yl))bis(3-methyl-1-oxobutane-2,1-diyl)dicarbamate [Example MC]",,,,,,,,,,,,,,,,,,,"EC50 ([8]; read-out: 1b): 0.017 nM; EC50 ([2]; genotype 2a JFH, EC50 range, read-out: 2a JFH): < 1 nM; EC50 ([2]; genotype 2a JFH, read-out: 2a JFH): 0.004 nM; EC50 ([3]; genotype 3a, EC50 range, read-out: 3a): < 1 nM; EC50 ([3]; genotype 3a, read-out: 3a): 0.004 nM; EC50 ([4]; genotype 2a J6, EC50 range, transiently transfected cells (t), else stably replicating cells (s), read-out: 2a J6): 1 to 4.99 nM; EC50 ([4]; stably replicating cells (s), read-out: 2a J6 (s)): 3.52 nM; EC50 ([4]; transiently transfected cells (t), read-out: 2a Jb (t)): 1.16 nM; EC50 ([5]; genotype 2b, EC50 range, transiently transfected cells (t), else stably replicating cells (s), read-out: 2b): < 1 nM; EC50 ([5]; stably replicating cells (s), read-out: 2b (s)): 0.375 nM; EC50 ([5]; transiently transfected cells (t), read-out: 2b (t)): 0.162 nM; EC50 ([9]; genotype 4a, EC50 range, transiently transfected cells (t), else stably replicating cells (s), read-out: 4a): < 1 nM; EC50 ([9]; stably replicating cells (s), read-out: 4a (s)): 0.028 nM; EC50 ([9]; transiently transfected cells (t), read-out: 4a (t)): 0.008 nM; EC50 ([6]; 1a Q30R resistance mutant, EC50 range, read-out: 1a Q30R): < 1 nM; EC50 ([6]; 1a Q30R resistance mutant, read-out: 1a Q30R): 0.99 nM"

# From patent publication US8575135B2 (Gilead Sciences, Inc., priority 2011, dated 2013)
